Source: ChEMBL document CHEMBL1201862, “PubChem BioAssay data set” (2004)
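Step 1: Grow cells in 96-well plates. Step 2: Expose to compound for 48 hours at 5 concentrations. Step 3: Interpolate endpoints linearly; if unreached, use highest concentration. GI50: concentration for 50% inhibition of growth.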 Activity calls are given as the source filed them. No stated cut-off is given here; in the data, active = GI50 up to about 1.1 µM and inactive = higher.

Legend:
Assay in all cases: NCI tumour cell line growth inhibition, 48 h
MOLT-4 = tested on: MOLT-4
DU-145 = tested on: DU-145
EKVX = tested on: EKVX
UO-31 = tested on: UO-31
SK-MEL-5 = tested on: SK-MEL-5
UACC-257 = tested on: UACC-257
TK-10 = tested on: TK-10
SK-MEL-2 = tested on: SK-MEL-2
MCF7 = tested on: MCF7
LOX IMVI = tested on: LOX IMVI
HT-29 = tested on: HT-29
SF-539 = tested on: SF-539
OVCAR-3 = tested on: OVCAR-3
K562 = tested on: K562
NCI/ADR-RES = tested on: NCI/ADR-RES
MDA-N = tested on: MDA-N
RPMI-8226 = tested on: RPMI-8226
NCI-H23 = tested on: NCI-H23
CAKI-1 = tested on: CAKI-1
SF-295 = tested on: SF-295

Measured: GI50

CN(CCCN(C)Cc1ccc(Cl)c(Cl)c1)CCN1CCCC1
inactive: MOLT-4 6.27 µM | DU-145 62.1 µM | EKVX 36.3 µM | UO-31 4.78 µM | SK-MEL-5 6.92 µM | UACC-257 2.62 µM | TK-10 24.2 µM | SK-MEL-2 11 µM | MCF7 18.4 µM | LOX IMVI 14.4 µM | HT-29 4.13 µM | SF-539 16.7 µM | OVCAR-3 60.3 µM | K562 4.67 µM | NCI/ADR-RES > 66.5 µM | MDA-N 4.32 µM | RPMI-8226 4.28 µM | NCI-H23 26.5 µM | CAKI-1 29.2 µM | SF-295 21.7 µM

C#CCCOC(=O)CC1=C(C)/C(=C/c2ccc([S+](C)[O-])cc2)c2ccc(F)cc21 (stereo not drawn)
inactive: MOLT-4 17.5 µM | DU-145 17.2 µM | EKVX 22.8 µM | UO-31 15.5 µM | SK-MEL-5 12.3 µM | UACC-257 15.7 µM | TK-10 28.3 µM | SK-MEL-2 15.7 µM | MCF7 19.4 µM | LOX IMVI 14.9 µM | SF-539 16.2 µM | OVCAR-3 15.4 µM | K562 13.2 µM | NCI/ADR-RES 13.3 µM | MDA-N 6.67 µM | RPMI-8226 11 µM | NCI-H23 22.2 µM | CAKI-1 6.19 µM | SF-295 13.9 µM

Nc1ncnc2c1ccn2CC#CCO
inactive: MOLT-4 > 100 µM | DU-145 > 100 µM | EKVX > 100 µM | UO-31 > 100 µM | SK-MEL-5 > 100 µM | UACC-257 > 100 µM | TK-10 > 100 µM | SK-MEL-2 > 100 µM | MCF7 > 100 µM | LOX IMVI > 100 µM | HT-29 > 100 µM | SF-539 > 100 µM | OVCAR-3 > 100 µM | K562 > 100 µM | NCI/ADR-RES > 100 µM | MDA-N > 100 µM | RPMI-8226 > 100 µM | NCI-H23 > 100 µM | CAKI-1 > 100 µM | SF-295 > 100 µM

Cc1ccc(S(=O)(=O)NC2C(=O)c3ccccc3C(=O)C2n2cnc3ccccc32)cc1 (stereo not drawn)
inactive: MOLT-4 19.2 µM | DU-145 57.9 µM | EKVX 34.3 µM | SK-MEL-5 13.1 µM | UACC-257 28.9 µM | TK-10 17.7 µM | SK-MEL-2 14.7 µM | MCF7 31.6 µM | LOX IMVI 31.8 µM | HT-29 28.1 µM | SF-539 24.7 µM | OVCAR-3 4.3 µM | K562 90.6 µM | NCI/ADR-RES 22.1 µM | MDA-N 19.4 µM | RPMI-8226 32.5 µM | NCI-H23 23.9 µM | CAKI-1 60 µM | SF-295 37.8 µM
